Measured values: patent publication US20030208035A1, “Antifungal and/or antibacterial peptides, preparation methods, compositions containing same and methods of treating mammals and/or plants” (priority 2000, published 2003)
Values after ≈ are worked out from the molar mass of the structure shown. Where two headings read alike, the source gives them in different places. Bridges are numbered along the chain shown (N, C = ends). Where no end group is shown, it is not given here.

Columns and labels:
Aspergillus fumigatus = assay: anti-Aspergillus fumigatus growth inhibition test in liquid medium (96-well microplates); format: cell-based; conditions: for Activity A.f. (relative activity in relation to heliomycin): fold relative to heliomycin; for Activity A.f. (relative activity in relation to Ard1): fold relative to Ard1
Protocol: (§1) The anti-Candida albicans and anti-Aspergillus fumigatus activities of the different analogues were assessed using a growth inhibition test in liquid medium made in 96-well microplates. The activity of the purified peptides was tested for different dilutions of each peptide and was compared with those of heliomycin and Ard1 quantified under the same conditions.
The spores of Aspergillus fumigatus were derived from a stock frozen at −80° C., containing 10^7 spores/ml in a 25% glycerol solution. After slow thawing at room temperature, the spores were placed in suspension in PDB culture medium (12 g Potato Dextrose Broth medium, per […] water). 10 μl of each sample were deposited in the wells of microtitration plates in the presence of 90 μl PDB culture medium supplemented with tetracycline (100 μg/ml) and cefotaxime (1 μg/ml) containing the spores (at a final concentration of 1000 spores/well). Control cultures were systematically made in which 10 μl of sample were replaced by 10 μl of sterile water. Media sterility was controlled by incubating 10 μl sterile water in the presence of 90 μl of medium. The samples were incubated at 37° C. for 24 h to 48 h in a humid atmosphere, and the antifungal activity was quantified by a score of 0 to 9 taking germination account; the size and morphology of the hyphs were determined under the binocular microscope. […].

[1] = tested on: Candida albicans (IHEM 8060 strain); assay: Candida albicans infected model, lethal in mice (disseminated candidiasis); format: in vivo; conditions: for time of onset of the 1st death: placebo day 2.5
Protocol: Heliomycin and its analogues were tested for in vivo antifungal activity in a model infected with Candida albicans, lethal in mice. The pathogenic agent Candida albicans (IHEM 8060 strain) was inoculated by intravenous route (i.v.) at a dose of 2.5×10^6 CFU/mouse. the peptides were administered by i.v. route in 4 injections 6 h, 24 h, 48 h and 72 h after infection. Assessment criteria for activity were evaluation of survival and morbidity at 7 days. The morbidity scores, which take into account general state of health (condition of fur, mobility, hydration) were determined for each mouse with values ranging from 0 to 5 and defined below: 0=dead, 1=moribund, 2=very ill, 3=ill, 4=slightly ill, 5=healthy. The sum of the individual scores was calculated for each group, a score of 50 for a group of 10 mice meaning that all the mice were healthy.
Following a standard protocol, groups of 10 Swiss OF1 male mice weighing 12 g were infected via i.v. route with a dose of 2.5×10^6 CFU/mouse. Heliomycin and Ard1 were administered by i.v. route in 4 injections, 6 h, 24 h, 48 h and 72 h after infection. For each peptide, 2 doses were tested: 10 mg/kg and 30 mg/kg. A placebo group was injected with peptide solvent, 0.9% sodium chloride.
In this experiment, inoculation of the mice with 2.5.10^6 CFU/mouse was 50% lethal at day 5 in the group which received placebo treatment. The first deaths occurred on post-infection day 2.5 and median mortality occurred on post-infection day 5. On day 7, 5 mice were alive and the morbidity score 15/50.
In this experiment, inoculation of Swiss OF1 mice weighing 15 g with 3.10^6 CFU of Candida albicans induces 50% mortality on day 4 after infection in the group treated with the placebo. The first deaths occur 2.5 days after infection, and 100% of the mice were dead on day 5.5.
In this experiment, inoculation of the mice with 2.5.10^6 CFU/mouse was 50% lethal at day 5 and 100% at day 8 for mice in the placebo group. The first death occurred 3 days after infection. The morbidity score fell rapidly below 30/50 (25/50 at day 2.5).
The pEM35 peptide was administered at doses of 10 and 30 mg/kg/injection with 3 daily doses for 4 days (1 h, 5 h and 10 h post-infection on day 0; at 8 h, 14 h and 20 h on days 1, 2 and 3), i.e., daily doses totalling 30 and 90 mg/kg.

C. glabrata = format: cell-based
Protocol: (§2) Candida yeasts (C. albicans, C. glabrata, C. dubliensis, C. tropicalis, C. kefyr, C. krusei and C. parapsilosis—donated by Dr. H. Koenig, Hôpital Civil, Strasbourg), fluconazole-resistant C. albicans (n^o245962, n^o2332, n^o246335 and n^o3552, donated by Drs. J.Meis and J. Mouton, University Hospital, Microbiology Department, Nijmegen, Netherlands), and Cryptoccocus neoformans (donated by Dr. H. Koenig, Hôpital Civil, Strasbourg) were seeded on Sabouraud-Cloramphenicol Agar slant gelose (Biomerieux) and left to incubate for 24 h at 30° C. (Candida sp.) and for 72 h at 37° C. (Cryptoccocus neoformans).
(§3) Some yeast colonies were placed in suspension in liquid Sabouraud medium (Biomerieux) to obtain a final concentration of 0.1 OD at 600 nm corresponding to 2.5.10^6 yeasts/ml.
(§4) The yeast suspension was adjusted to 5.10^3 yeast/ml in Sabouraud medium.
(§5) 100 μl of peptide dilutions (concentration of 50 with 0.097 μg/ml peptide) were deposited in microtitration plates. After adding […] of yeast suspension with 5.10^3 yeast/ml i.e. 500 yeasts, the test plates were incubated 24 h at 30° C. (Candida) under slow shaking or 72 h at 37° C. (Cryptoccocus).
(§6) Determination of minimal inhibiting concentrations (MIC) was made by measuring absorbency at 600 nm using a spectrophotometer-microtitration plate reader. The MIC score was set at a growth inhibition rate of 50%.

C. kefyr = format: cell-based
Protocol: as §2, §3, §4, §5, §6

C. krusei = format: cell-based
Protocol: as §2, §3, §4, §5, §6

A. fumigatus = format: cell-based
Protocol: (§7) The antifungal activity was detected by a growth inhibition test in a liquid medium.
(§8) The filamentous fungi (A. fumigatus, A. flavus and A. terreus, donated by Dr. H. Koenig, Hôpital Civil, Strasbourg; and S. prolificans and F. solani donated by Drs. J. Meis and J. Mouton, University hospital, Microbioolgy Department, Nijmegen, Netherlands) were seeded on Malt-Agar slant gelose (Biomerieux) and incubated 7 days at 37° C.
(§9) The spores were then collected with 10 ml YPG medium containing 0.05% Tween 20 and filtered through a gauze. The spores were centrifuged 10 min at 1700 rpm, the residue was collected in YPG (1 g Yeast extract, 1 g Peptone, 3 g Glucose per 1 l).
(§10) The suspension was counted with a Coverslide and adjusted to 10^4 spores/ml.
(§11) 100 μl of peptide dilutions (concentration of 50 with 0.097 μg/ml peptide) were deposited in microtitration plates. 100 μl with 10^4 spores/ml of filamentous fungi, i.e. 1000 spores, were then added.
(§12) The test plates were incubated 48 h at 37° C.
(§13) Determination of minimum inhibiting concentrations (MIC) was made by observing well cover rate. The MIC score was set at 50% well covering.

Alternaria brassicola = format: cell-based; conditions: 48 h
Protocol: (§14) 100 μl of peptide dilutions (concentration 50 with 0.097 mg/ml peptide) were deposited in microtitration plates.
(§15) After adding 100 μl of frozen spores with 10^4 spores/ml of A. brassicola and N. crassa (donated by Dr. Bullet, IBMC, Strasbourg) the test plates were incubated 48 h at 30° C.
(§16) Determination of minimal inhibiting concentrations (MIC) was made by observing well cover rate. The MIC was set at 50% well covering.

Neurospora crassa = format: cell-based; conditions: 48 h
Protocol: as §14, §15, §16

[2] = tested on: fluconazole-resistant C. albicans; assay: microbe, parasite or virus in culture; format: cell-based, Candida albicans
Protocol: as §2, §3, §4, §5, §6

F. solani = assay: Test to detect activity against filamentous fungi (MIC); format: cell-based; conditions: F. solani FFUS 8591
Protocol: as §7, §8, §9, §10, §11, §12, §13

S. prolificans = assay: as above; format: cell-based
Protocol: as §7, §8, §9, §10, §11, §12, §13

Candida albicans = assay: anti-Candida albicans growth inhibition test in liquid medium (96-well microplates); format: cell-based; conditions: for Activity C.a. (relative activity in relation to Ard1): fold relative to Ard1
Protocol: as §1
The activity test was made directly on yeasts derived from a stock frozen at −80° C., in Sabouraud medium containing 15% glycerol. The density of the yeasts in the stock was adjusted to an optical density of 0.4 OD at 600 nm. After slow thawing at room temperature, the yeast suspension was reduced by dilution to an optic density of 1 mOD at 600 nm in Sabouraud medium, and 90 μl of this dilution were deposited in the wells of microtitration plates in the presence of 10 μl of sample to be tested. Control samples were systematically made in which 10 μl of sample were replaced by 10 μl of sterile water. Media sterility was controlled by incubating 10 μl sterile water in the presence of 90 μl of medium. The samples were incubated at 30° C. for 40 h under slight stirring and the antifungal activity was quantified by measuring optic density at 600 nm.

C. albicans = format: cell-based, Candida albicans; conditions: 24 h
Protocol: as §2, §3, §4, §5, §6

C. parapsilosis = format: cell-based
Protocol: as §2, §3, §4, §5, §6

C. tropicalis = format: cell-based
Protocol: as §2, §3, §4, §5, §6

[3] = FIGS. 2-3, 10 mg/kg i.v., 4 injections
[4] = FIGS. 4-5, 10 mg/kg, placebo 5 alive
[5] = fluconazole-resistant C. albicans n° 2332
[6] = fluconazole-resistant C. albicans n° 245962
[7] = fluconazole-resistant C. albicans n° 246335

| Compound | Activity A.f. (relative activity in relation to heliomycin) (Aspergillus fumigatus) | mice alive on day 7 (out of 10) [1, 4] | MIC (C. glabrata) | MIC (C. kefyr) | MIC (C. krusei) | MIC (Alternaria brassicola) | MIC (Neurospora crassa) | MIC [2, 5] | MIC [2, 6] | MIC [2, 7] | activity compared with Ard1 ([1]; FIGS. 4-5, 10 mg/kg) | time of onset of the 1st death ([1]; FIGS. 4-5, 10 mg/kg) | Activity C.a. (relative activity in relation to Ard1) (Candida albicans) | Activity A.f. (relative activity in relation to Ard1) (Aspergillus fumigatus) | also measured |
| --- | --- | --- | --- | --- | --- | --- | --- | --- | --- | --- | --- | --- | --- | --- | --- |
| DKLIGSCVWGAVNYTSNCNAECKRRGYKGGHCGSFANVNCWCET (disulfide 7-32, 18-40, 22-42 (inferred)) [Ard1] | 2 | 8 mice | >25 µg/mL | >25 µg/mL | 3.125 µg/mL | >25 µg/mL | 0.097 µg/mL | – | – | – | – | – | – | – | effect on survival and general condition of the mice [1, 3]: did not make it possible to improve survival; time after infection at which 50% of mice were dead [1, 3]: 2 days; mice alive on day 7 (out of 10) ([1]; FIGS. 2-3, 30 mg/kg i.v., 4 injections): 5 mice; morbidity score at day 7 ([1]; FIGS. 2-3, 30 mg/kg i.v., 4 injections, 50 = all 10 mice healthy): 16/50; delay of onset of the first death ([1]; FIGS. 2-3, 30 mg/kg i.v., 4 injections, vs placebo): 24 h; delay of onset of the first death ([1]; FIGS. 4-5, 2.5.10^6 CFU/mouse, 10 mg/kg, placebo first deaths day 2.5): 36 h; effect on mouse survival relative to placebo treatment ([1]; FIGS. 6-7, 3.10^6 CFU, 5 mg/kg, three i.v. injections, 10 mice of 15 g): does not significantly increase mouse survival; effectiveness in the candidiasis infected model ([1]; FIGS. 6-7, dose 5 mg/kg): not effective; MIC (A. fumigatus; 48 h): 12.5 µg/mL |
| C[C@@H]1[C@H](O)[C@@H](C)/C=C/C=C/C=C/C=C/C=C/C=C/C=C/[C@H](O[C@@H]2O[C@H](C)[C@@H](O)[C@H](N)[C@@H]2O)C[C@@H]2O[C@](O)(C[C@@H](O)C[C@@H](O)[C@H](O)CC[C@@H](O)C[C@@H](O)CC(=O)O[C@H]1C)C[C@H](O)[C@H]2C(=O)O [ampho B, Amphotericin B] | – | – | – | – | – | – | – | 0.25 µg/mL (≈ 0.271 µM) | 0.125 µg/mL (≈ 0.135 µM) | 0.0625 µg/mL (≈ 0.0676 µM) | – | – | – | – | MIC (A. fumigatus; A. fumigatus FASF 5161): 0.5 µg/mL (≈ 0.541 µM); MIC (F. solani): > 16 µg/mL; MIC (S. prolificans; S. prolificans FSSP 7902): > 16 µg/mL; MIC (S. prolificans; S. prolificans FSSP 7908): > 16 µg/mL |
| OC(Cn1cncn1)(Cn1cncn1)c1ccc(F)cc1F [fluconazole] | – | – | – | – | – | – | – | > at 64 μg/ml | > at 64 μg/ml | > at 64 μg/ml | – | – | – | – | MIC ([2]; Candida albicans, fluconazole-resistant C. albicans n° 3552, read-out: MIC): > 64 µg/mL |
| DKLIGSCVWGAVNYTSDCNGECKRRGYKGGHCGSFLNINCWCET [pEM24, peptide derived from heliomycin] | 8 | 7 mice | – | – | – | – | – | – | – | – | more active than Ard1 | 3 days | – | – | Activity C.a. (relative activity in relation to heliomycin) (Candida albicans; fold relative to heliomycin): 4 |
| DKLIGSCVWGAVNYTSNCNAECKRRGYKGGHCGSFLNVNCWCER (disulfide 7-32, 18-40, 22-42 (inferred)) [pEM48] | – | – | >25 µg/mL | 25 µg/mL | 1.56 µg/mL | 12.5 µg/mL | 0.39 µg/mL | – | – | – | – | – | 6-12 | 1-2 | MIC (C. albicans): 1.56 µg/mL; MIC (C. parapsilosis): 0.78 µg/mL; MIC (C. tropicalis): 3.125 µg/mL |
| DKLIGSCVWGAVNYTSNCNAECKRRGYKGGHCGSFANVNCWCER [pEM30, peptide derived from Ard1] | – | 7 mice | – | – | – | – | – | – | – | – | more active than Ard1 | 4 days | 4 | 0.5-1 | – |
